# Test results as given in patent publication US7927821B2, “Methods of screening for compounds which bind G protein-coupled receptors” (Takeda Pharmaceutical Company Limited, priority 2004, dated 2011).
# Target: TGR25-GFP fusion protein (UniProt P42212+Q86Y34, F64L/I167T/S65C)
# Assay: Internalization of the TGR25-GFP fusion protein expressed on CHO cells (confocal microscope)
# Type: cell-based, human
# Details: 100 μM AM251, 45 minutes, 37° C.
smiles,measurement,value
"Cc1c(C(=O)NN2CCCCC2)nn(-c2ccc(Cl)cc2Cl)c1-c1ccc(I)cc1 [AM251, 1-(2,4-dichlorophenyl)-5-(4-iodophenyl)-4-methyl-N-piperidin-1-yl-1H-pyrazole-3-carboxamide]",localization of the TGR25-GFP fusion protein (internalization),moved in part to the cytoplasm
